Test results: patent US8586505B2 (SDS Biotech K. K., priority 2009, dated 2013)

What was measured:
[1] = tested on: Phytophthora infestans; assay: whole plant or invertebrate; assay type: in vivo; conditions: in Solanum lycopersicum, 96 h, read-out: Determination of control effect (preventive value)
[2] = tested on: Pseudoperonospora cubensis; assay: Test of examining control effect on Pseudoperonospora cubensis (potted cucumber plants); assay type: in vivo; conditions: 96 h, 10% wettable powder adjusted to 125 ppm, 15 ml/pot sprayed on potted cucumber plants one day before spray inoculation, assessed after 1 day wet chamber and 3 days greenhouse, read-out: Determination of control effect (preventive value) on Pseudoperonospora cubensis
Outline: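 Cucumber plants (Sagamihanjiro, 2.5-leaf stage) sprayed with 125 ppm compound solution from 10% wettable powder, 15 ml/pot. One day later, spray-inoculated with P. cubensis conidia (1.0×10^4 cells/ml), kept 1 day at 21° C wet, then 3 days in greenhouse. Preventive value derived from lesion area relative to untreated plants.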

[3] = tested on: Sphaerotheca fuliginea; assay: Test of examining control effect on Sphaerotheca fuliginea (potted cucumber plants); assay type: in vivo; conditions: Podosphaera fuliginea, 336 h; 10% wettable powder adjusted to 125 ppm, 15 ml/pot sprayed on potted cucumber plants one day before spray inoculation; assessed after 14 days in greenhouse; read-out: Determination of control effect (preventive value) on Sphaerotheca fuliginea
Outline: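 Cucumber plants (Sagamihanjiro, 2nd leaf stage) sprayed with 125 ppm compound (from 10% wettable powder), inoculated one day later with S. fuliginea conidia (1.0×10^5 cells/ml); lesion area scored after 14 days in greenhouse. Preventive value vs untreated; ≥60% high, <60% low control.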

| SMILES | pest or weed control at 125 ppm [1] [%] | pest or weed control at 125 µg/mL [2] [%] | pest or weed control at 125 µg/mL [3] [%] | melting point [°C] |
| --- | --- | --- | --- | --- |
| OC(c1ccccc1C#CCCNc1ncnc2ccccc12)C(F)(F)F (centres unmarked) [compound 138] | 0 to 60 | 0 to 60 | 0 to 60 | 183 to 187 |
| Clc1cccc(C#CCCNc2ncnc3ccccc23)c1Cl [compound 171] | 60 to 100 | 60 to 100 | 60 to 100 | 175 to 176 |
| OCc1cnccc1C#CCCNc1ncnc2ccccc12 [compound 201] | 0 to 60 | 60 to 100 | 60 to 100 | 182 to 186 |
| Clc1cccc(Cl)c1C#CCCNc1ncnc2ccccc12 [compound 174] | 60 to 100 | 60 to 100 | 60 to 100 | 153 to 155 |
| C(#Cc1ccccc1)CCNc1ncnc2[nH]cnc12 [compound 378] | 0 to 60 | 0 to 60 | 0 to 60 | 207 to 208 |
| Fc1ccc(C#CCCNc2ncnc3ccccc23)cc1F [compound 166] | 60 to 100 | 60 to 100 | 60 to 100 | 161 to 162 |
| OCc1cc(C#CCCNc2ncnc3ccccc23)co1 [compound 209] | 0 to 60 | 60 to 100 | 0 to 60 | 135 to 147 |
| FC(F)(F)c1ccc(C#CCCNc2ncnc3ccccc23)cn1 [compound 198] | 0 to 60 | 60 to 100 | 60 to 100 | 134 to 139 |
| CCOC(=O)c1sc(C#CCCNc2ncnc3ccccc23)nc1C [compound 214] | 0 to 60 | 60 to 100 | 60 to 100 | 139 to 140 |
| C(#Cc1ccncc1)CCNc1ncnc2sccc12 [compound 57] | 0 to 60 | 0 to 60 | 0 to 60 | 140 to 141 |
| CCOc1ccccc1C#CCCNc1ncnc2ccccc12 [compound 118] | 60 to 100 | 60 to 100 | 60 to 100 | 119 to 120 |
| N#Cc1ccc(Oc2nc(C#CCCNc3ncnc4ccccc34)cs2)cc1 [compound 223] | 60 to 100 | 60 to 100 | 60 to 100 | 55 to 57 |
| C(#Cc1csc(-c2ccsc2)n1)CCNc1ncnc2sccc12 [compound 80] | 0 to 60 | 60 to 100 | 60 to 100 | 55 to 56 |
| Cc1cc(C)nc(C#CCCNc2ncnc3sccc23)n1 [compound 59] | 0 to 60 | 0 to 60 | 0 to 60 | 112 to 113 |
| Cc1cccc(C#CCCNc2ncnc3sccc23)c1 [compound 18] | 0 to 60 | 60 to 100 | 60 to 100 | 120 to 123 |
| C(#Cc1cscn1)CCNc1ncnc2sccc12 [compound 63] | 60 to 100 | 60 to 100 | 60 to 100 | 174 |
| C(#Cc1csc(-c2ccccc2)n1)CCNc1ncnc2sccc12 [compound 76, 4-[4-(2-Phenylthiazol-4-yl)-3-butynylamino]thieno[2,3-d]pyrimidine] | 0 to 60 | 60 to 100 | 60 to 100 | 134 to 136 |
| COc1ccc(Cl)cc1C#CCCNc1ncnc2ccccc12 [compound 179] | 60 to 100 | 60 to 100 | 60 to 100 | 147 to 149 |
| C=C(C#CCCNc1ncnc2ccccc12)CO [compound 92] | 60 to 100 | 60 to 100 | 0 to 60 | 139 |
| Fc1cccc(Oc2nc(C#CCCNc3ncnc4ccccc34)cs2)c1 [compound 225] | 60 to 100 | 60 to 100 | 60 to 100 | 134 to 136 |
